Experiments:
[1] = tested on: HEMO gene; assay: Effect of DNA demethylation on HEMO gene expression, RT-qPCR; format: cell-based, human; settings: for dose at which HEMO transcripts were detectable by qRT-PCR: 3-day treatment, doses 0.1 to 5 μM
Procedure: For treatment with 5-Aza-2′-deoxycytidine (5-Aza-dC; SIGMA-ALDRICH), 2×10^5 BeWo and 293T cells were plated in 6-well dishes. Doses ranging from 0.1 to 5 μM of 5-Aza-dC were then added to the culture for 3 days, with fresh medium each day. Cells were harvested for RNA extraction one day later.
Total RNAs from human tissues and cells were either purchased from ZYAGEN (San Diego), or isolated using the RNAeasy Isolation Kit (QIAGEN) according to the manufacturer's instructions, and treated with Dnase I (AMBION). Reverse transcription was performed with 1 μg of RNA using the MLV reverse-transcriptase (APPLIED BIOSYSTEMS). Real-time quantitative PCR was carried out with 5 μl of diluted (1:20) cDNA in a final volume of 25 μl by using SYBR green PCR master mix (QIAGEN). qPCR was carried out with an ABI Prism 7000 sequence detection system, using primers listed in Table 4 above. Transcript levels were normalized relative to the amount of a housekeeping gene (RPLPO or G6PD) mRNA. Samples were assayed in duplicate.

[2] = tested on: HEMO release in the supernatant; assay: Inhibition of HEMO release (shedding) in supernatant of phCMV-HEMO transfected 293T cells, Western blot; format: cell-based, human; settings: 293T cells transfected with phCMV-HEMO, treated 3 days, BATIMASTAT 0.1 to 10 μM, MARIMASTAT 0.1 to 10 μM, GM6001 1 to 50 μM
Procedure: For treatment with metalloprotease inhibitors, 5×10^5 293T cells were seeded in 6-well dishes with 2 mL/well of culture medium. One day after seeding, cells were transiently transfected using 1.5 μg phCMV-HEMO plasmid and 4.5 μL Lipofectamine LTX (THERMOFISHER) per well. One day post-transfection, cells were incubated with culture medium supplemented with the indicated concentrations of metalloprotease inhibitors (CALBIOCHEM): BATIMASTAT (0.1 to 10 μM), MARIMASTAT (0.1 to 10 μM) or GM6001 (1 to 50 μM). Medium with inhibitors was replenished for 2 other days, and supernatants were collected and filtered through 0.45 μm MILLIPORE filters one day later. Cells were harvested the same day for protein analysis.
Samples, cell supernatants or cell lysates were analyzed by SDS/PAGE on gradient precast gels (NuPAGE NOVEX 4-12% Bis-Tris gels, LIFE TECHNOLOGIES), and transfer onto nitrocellulose membranes using a semi-dry transfer system. […] Proteins were detected by using an enhanced chemiluminescence system (ECL, PIERCE).

## Nc1ncn([C@H]2C[C@H](O)[C@@H](CO)O2)c(=O)n1 [5-Aza-dC, 5-Aza-2′-deoxycytidine]
[1]; 293T cells
  dose at which HEMO transcripts were detectable by qRT-PCR: 5 µM
[1]; BeWo cells
  dose at which HEMO transcripts were detectable by qRT-PCR: 0.1 µM
[1]; CaCo-2 cells (HEMO-expressing), similar 5-Aza-dC treatment
  HEMO gene transcript level after treatment: not further amplified

## CNC(=O)[C@H](Cc1c[nH]c2ccccc12)NC(=O)[C@@H](CC(=O)NO)CC(C)C [GM6001]
[2]
  HEMO release in the supernatant: clearly inhibited HEMO release in the supernatant

## CNC(=O)[C@@H](NC(=O)[C@H](CC(C)C)[C@H](O)C(=O)NO)C(C)(C)C [MARIMASTAT]
[2]
  HEMO release in the supernatant: clearly inhibited HEMO release in the supernatant

Reference: patent US20200102353A1, “HUMAN ENDOGENOUS RETROVIRAL PROTEIN” (priority 2017, published 2020)
